According to PubChem BioAssay (NCI):
Values joined by “and” are separate entries in the source; they are usually repeats but may differ in a detail not shown here. Equal values may be shown once.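 These data come from cells grown in 96-well plates and exposed to compound for 48 hours at five concentrations. GI50 is the concentration that inhibits growth by half. TGI: total growth inhibition.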 Numbered stars: 1 amine (or outer) side, 2 acyl side, 3 side chain; on linkers, the order of the positions; unused ones are H or OH. *1 amine or outer side, *2 acyl side, *3 side chain or, on linkers, in order; H or OH if unused. Bridge positions count the residues as written; N and C are the ends. Where a SMILES comes first, the peptide text is derived from it. Square brackets hold non-standard residues; d marks the D form. Peptide text beside a SMILES is read from it. I, II: the chains in the order shown. [ ]: non-standard residue; d: D form. The star is where a group is joined. Actinocin(9to1) = Cc1c2oc3c(C)ccc(C(=O)[*:1])c3nc-2c(C(=O)[*:2])c(N)c1=O; X11 = C/C=C/CC(C)C(O)[C@H](N[*:1])C(=O)[*:2]; aThr = C[C@H](O)[C@H](N)C(=O)O; NMeV = CN[C@H](C(=O)O)C(C)C; Decanoyl = CCCCCCCCCC(=O)*; Leu(ol) = CC(C)C[C@H](N)CO; Aib = CC(C)(N)C(=O)O; Sar = CNCC(=O)O

Test system: MDA-MB-468 breast
Assay: growth of human tumour cells (NCI), 48 h

CN1CCN(Cc2ccc(NC(=O)c3cncc(C#Cc4cnc5ccc(N6CCOCC6)nn45)c3)cc2C(F)(F)F)CC1
GI50: 0.0735 µM | TGI: 0.165 µM

COc1cc(N2CCC(N)CC2)ccc1Nc1ncc(Cl)c(-c2c[nH]c3ccccc23)n1
GI50: 0.415 µM | TGI: 1.74 µM

CCc1ccc(SC2c3ccc(N(CC)CC)cc3Oc3nc(N)c(C#N)c(N)c32)cc1 (configuration not stated)
GI50: 1.58 µM | TGI: 3.06 µM

Nc1nc(N)c2c(n1)CCC(S(=O)(=O)c1ccc3ccccc3c1)C2 (configuration not stated)
GI50: 2.25 µM | TGI: 33 µM

C#CCNC(=O)CC[C@@H](C)[C@H]1CC[C@H]2[C@@H]3CC[C@@H]4CC(=O)CC[C@]4(C)[C@H]3CC[C@]12C
GI50: 13.8 µM | TGI: 45.4 µM

O=C(Nc1cccc(-n2cc(-c3ccncc3)c(-c3ccc(Cl)c(O)c3)n2)c1)Nc1ccc(Cl)c(Cl)c1
GI50: 0.729 µM | TGI: 4.25 µM

COc1c(B(O)O)cccc1-c1nc2c(F)cc3n[nH]c(C)c3c2c2c1CCCC2
GI50: 0.994 µM | TGI: 4.12 µM

CC(=O)N[C@@H](Cc1ccc(OP(=O)(O)O)cc1)C(=O)N[C@H]1CCC(=O)N2CCC[C@@H](C(=O)NC3CCc4ccccc43)N2C1=O (some centres not stated)
GI50: > 25 µM | TGI: > 25 µM

Cc1cc(C)c2c(c1)N(C)c1ncnc(-n3cnc4cc(C)ccc43)c1CC2C (configuration not stated)
GI50: 3.24 µM | TGI: 27 µM

CC(=O)ON=C1C=CC(=C(C#N)c2ccccc2)C=C1
GI50: 0.42 µM | TGI: 12.5 µM

CCN(CC)CC(O)c1cc(-c2ccc(Cl)cc2)nc2c(C)c(Cl)ccc12 (configuration not stated)
GI50: 1.89 µM | TGI: 3.42 µM

O=C(/C=C/C=C/c1ccc2c(c1)OCO2)N/N=C\c1ccc(O)cc1O
GI50: 1.66 µM | TGI: 5.73 µM

COc1ccc(/C=C\c2cc(OC)c(OC)c(OC)c2)c(NS(=O)(=O)c2ccc(F)cc2)c1O
GI50: 0.0692 µM

CCCCCCCCCCCCCCCCCC[S+](C)CC (configuration not stated)
GI50: 0.527 µM | TGI: 2.66 µM

CN1CCN(CCC=C2c3ccccc3Sc3ccc(S(=O)(=O)N(C)C)cc32)CC1
GI50: 1.38 µM and 1.53 µM | TGI: 2.97 µM and 4.26 µM

CC(=O)Nc1cc2c3c(cccc3c1)-c1ccccc1-2
GI50: 37.4 µM | TGI: > 100 µM

COC(=O)Nc1nc2ccc(C(=O)c3ccc(F)cc3)cc2[nH]1
GI50: 0.812 µM | TGI: > 100 µM

CC/C(=C(/c1ccc(OCCN(C)C)cc1)c1ccc(OC(=O)CCCCCCCCC(=O)c2c(C)[nH]c(/C=C3\N=C(c4ccc[nH]4)C=C3OC)c2C)cc1)c1ccccc1
GI50: 3.62 µM | TGI: > 100 µM

CN1CCN(Cc2ccc(NC(=O)c3cncc(C#Cc4cnc5ccc(OCCCS(C)(=O)=O)nn45)c3)cc2C(F)(F)F)CC1
GI50: 0.684 µM | TGI: 1.68 µM

COCCn1c2c([n+](Cc3cnccn3)c1C)C(=O)c1ccccc1C2=O
GI50: < 0.01 µM | TGI: 0.0141 µM

Nc1c(C(=O)Nc2cccc(C(F)(F)F)c2)sc2nc3c(cc12)CCCCCC3
GI50: 0.798 µM | TGI: 3.32 µM

CN1CCN(Cc2ccc(NC(=O)c3cncc(C#Cc4cnc5ccc(N)nn45)c3)cc2C(F)(F)F)CC1
GI50: 0.852 µM | TGI: 3.24 µM

Cn1c(=O)c(Oc2ccc(F)cc2F)cc2cnc(NCC(C)(C)O)nc21
GI50: > 25 µM | TGI: > 25 µM

CC[C@@]1(O)C(=O)OCc2c1cc1n(c2=O)Cc2c-1nc1cc(F)c(C)c3c1c2[C@@H](NC(=O)CO)CC3
GI50: < 0.01 µM | TGI: < 0.01 µM

CN(C)C1CN(C(=O)c2cc(-c3ccc4ncnc(N5CCc6cc(F)c(Cl)cc65)c4c3)cnc2N)C1
GI50: 0.254 µM | TGI: 1.07 µM

CCCCOC(=O)c1c(C)[nH]c(/C=C2\N=C(c3ccc[nH]3)C=C2OC)c1C
GI50: 0.451 µM | TGI: 2.02 µM

Nc1n[nH]c2ccc([C@@H]3Nc4ccc5cn[nH]c5c4[C@H]4C5CCC(C5)[C@@H]34)cc12 (some centres not stated)
GI50: 0.33 µM | TGI: 5.04 µM

CCCCCCCCCCCCCCCCCCOc1ccccc1COP(=O)(O)OOCC[N+](C)(C)C
GI50: 0.493 µM | TGI: 1.47 µM

CCN1C(=O)N(CC)C2SC(N/N=C/c3cccs3)=NC21 (configuration not stated)
GI50: 0.253 µM | TGI: 16.6 µM

C[C@]12CC[C@H]3[C@@H](CC[C@]4(O)C[C@@H](O[C@@H]5O[C@H](CO)[C@@H](O[C@@H]6OC[C@@H](O)[C@H](O)[C@H]6O)[C@H](O)[C@H]5O)CC[C@]34C=O)[C@@]1(O)CC[C@@H]2C1=CC(=O)OC1
GI50: 10 µM | TGI: 32.3 µM

O=C1OCC2=C1C(c1cccc(Cl)c1)c1cc3c(cc1N2CCO)CCC3 (configuration not stated)
GI50: 0.0231 µM | TGI: 0.84 µM

COc1cc(N(CCCl)CCCl)ccc1/C=N\NC(=O)c1cccnc1
GI50: 1.28 µM | TGI: 6.83 µM

COc1cc(C2CC(c3cccc(Nc4ccnc5cc(Cl)ccc45)c3)=NN2c2ccccc2)cc(OC)c1OC (configuration not stated)
GI50: 20.1 µM | TGI: > 100 µM

COc1ncc(-c2ccc3nccc(C#CCCCCC(=O)NO)c3c2)cc1NS(=O)(=O)c1ccc(F)cc1F
GI50: 0.0214 µM | TGI: 0.116 µM

COC(=O)[C@]12CC[C@@H](C)[C@H](C)[C@@H]1C1=CC[C@@H]3[C@@](C)(CC#N)C4=C(C[C@@]3(C)[C@]1(C)CC2)OC[C@]4(C)C=O
GI50: 10.7 µM | TGI: 42.3 µM

CO/C(=C1/NC(=O)C(Cc2ccc(O)c(Br)c2)N(C)C(=O)C(C)NC(=O)CCC/C=C(\C)CCC(C)OC1=O)c1ccccc1 (configuration not stated)
GI50: 0.0217 µM

Cc1cc(-c2cc(OC(=O)c3ccccc3)ccc2Cl)cc2nnc(Nc3ccc(OCCN4CCCC4)cc3)nc12
GI50: 1.32 µM | TGI: 2.91 µM

C/C=C/CC(C)C(O)[C@H](NC(=O)[C@@H]1CCCN1C(=O)C(C)(C)NC(=O)CCCCCCCCC)C(=O)NC(C)(C)C(=O)N[C@@H](CCC(N)=O)C(=O)N[C@H](CCC(N)=O)C(=O)NC(C)(C)C(=O)NC(C)(C)C(=O)N[C@@H](CCC(N)=O)C(=O)N[C@H](CC(C)C)C(=O)N[C@H](CO)CC(C)C (stereo partly drawn) (Decanoyl-[Aib]P[X11][Aib]Q[dQ][Aib][Aib]Q[dL][Leu(ol)])
GI50: 1.49 µM | TGI: 2.98 µM

CN(C)CCCCNc1ccc(NCCCCN(C)C)c2c1C(=O)c1c(O)ccc(O)c1C2=O
GI50: 13.7 µM | TGI: 26.5 µM

C=CC(=O)N1CCC[C@@H](n2nc(-c3ccc(Oc4ccccc4)cc3)c3c(N)ncnc32)C1
GI50: 0.0674 µM | TGI: 1.24 µM

Cc1cnc(-c2ccc(-c3ccc(NC(=O)Nc4c(F)cc(F)cc4F)cc3F)c3c2C(=O)NC3)[nH]1
GI50: 1.48 µM | TGI: 3.86 µM

COc1cc(C(=O)NN=C2c3ccccc3-c3ccccc32)cc(OC)c1OC
GI50: 3.47 µM | TGI: 41.9 µM

COC(=O)c1c2c(c(C)[n+]([O-])c1C)C(=O)C(NCc1ccc(O)cc1)=CC2=O
GI50: 0.402 µM | TGI: 1.74 µM

COc1cc(C)[nH]c(=O)c1CNC(=O)c1c(C)n([C@H](C)C2CCN(CC(F)(F)F)CC2)c2ccccc12
GI50: 24.9 µM | TGI: > 100 µM

O=C1c2ccc3c4c(ccc(c24)C(=O)N1CCNCc1ccccc1)C(=O)N(CCNCc1ccccc1)C3=O
GI50: 1.59 µM | TGI: 3.1 µM

Fc1ccc(Nc2nc3nonc3nc2Nc2ccc(I)cc2)cc1
GI50: 0.251 µM | TGI: 0.79 µM

Nc1ncnc2c1ccn2-c1cccc(NC(=O)c2ccc(N3CCOCC3)c(C(F)(F)F)c2)c1
GI50: 2.13 µM | TGI: 7.07 µM

CC[C@@H](C)/C=C(C)/C=C/C(=O)c1c(O)c(-c2ccc(O)cc2)cn(OC2CC(=O)CCC(C)OC(=O)CC2O)c1=O (some centres not stated)
GI50: 0.239 µM | TGI: 0.852 µM

NC1(C(=O)N[C@@H](CCO)c2ccc(Cl)cc2)CCN(c2ncnc3[nH]ccc23)CC1
GI50: 0.128 µM and 0.162 µM | TGI: 1.17 µM and 2.21 µM

Cc1c2oc3c(C)ccc(C(=O)N[C@@H]4C(=O)N[C@H](C(C)C)C(=O)N5CCC[C@H]5C(=O)N(C)CC(=O)N(C)[C@@H](C(C)C)C(=O)O[C@H]4C)c3nc-2c(C(=O)N[C@@H]2C(=O)N[C@H](C(C)C)C(=O)N3CCC[C@H]3C(=O)N(C)CC(=O)N(C)[C@@H](C(C)C)C(=O)O[C@H]2C)c(N)c1=O (I: [aThr][dV]P[Sar][NMeV] / II: [aThr][dV]P[Sar][NMeV]; ester I:1-I:C, II:1-II:C; linker I:N-II:N via Actinocin(9to1))
TGI: 0.0485 µM and 0.0157 µM
